The target of data set [1] is EGFR type I kinase (Homo sapiens, UniProt P00533). Conditions: as described in WO2008/150118; cited from earlier work.
In data set [2] the target is T1, CYP2C8 (Homo sapiens, UniProt P10632).
T1 sequence (P10632 1-490): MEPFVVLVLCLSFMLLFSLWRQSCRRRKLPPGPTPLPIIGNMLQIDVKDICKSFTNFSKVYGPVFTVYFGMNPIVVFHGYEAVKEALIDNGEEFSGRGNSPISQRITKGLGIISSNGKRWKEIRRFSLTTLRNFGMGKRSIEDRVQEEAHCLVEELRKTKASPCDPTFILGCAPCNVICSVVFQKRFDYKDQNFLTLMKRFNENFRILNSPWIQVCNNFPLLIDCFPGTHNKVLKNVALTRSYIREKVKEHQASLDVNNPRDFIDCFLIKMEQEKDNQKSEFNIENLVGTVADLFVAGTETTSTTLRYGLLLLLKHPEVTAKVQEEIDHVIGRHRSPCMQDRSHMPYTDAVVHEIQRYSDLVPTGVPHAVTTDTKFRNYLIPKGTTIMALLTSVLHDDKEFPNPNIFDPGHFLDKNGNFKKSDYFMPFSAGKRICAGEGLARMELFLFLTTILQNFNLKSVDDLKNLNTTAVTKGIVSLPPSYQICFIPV
The data set can be described thus: Inhibition of CYP2C8 supersome-mediated EET biosynthesis. Format: biochemical. Conditions: FIG. 2, read-out: IC50 for inhibition of EET synthesis. As to the method:
(§1) Poziotinib was purchased from a commercial source (Selleck Chem catalog number S7358). Assays were conducted using standard techniques that are known in the literature including those described in US Patent Publication U.S. 2015/0342909.
(§2) Poziotinib was tested for inhibition of proliferation of the MCF-7 (HER2 negative) cell line in complete media. The IC50 for inhibition of growth was determined to be approximately 3 μM (FIG. 1). Poziotinib was tested for inhibition of CYP2C8 supersome-mediated EET biosynthesis. The IC50 for inhibition of EET synthesis was determined to be approximately 10 μM (FIG. 2). Poziotinib was tested for inhibition of CYP3A4 supersome-mediated EET biosynthesis. The IC50 for inhibition of EET synthesis was determined to be approximately 10 µM (FIG. 2).

Data set [3] has as its target CYP3A4 (Homo sapiens, UniProt P08684). Description: Inhibition of CYP3A4 supersome-mediated EET biosynthesis. Format: biochemical. Conditions: CYP3A4 supersomes, read-out: IC50 for inhibition of EET synthesis. On the procedure: as §1, §2
Data set [4] concerns various cancer cell lines including colon/rectal, skin, lung and the breast cancer cell line SK-BR3. Conditions: lung and SK-BR3 (overexpresses HER2) cell lines, WO2008/150118; cited from earlier work.
In data set [5] the test system is MCF7. The data set can be described thus: Measurement of OCR and ECAR (XF Extracellular Flux Analyzer). Type of data set: cell-based. Conditions: MCF7, poziotinib 40 and 80 uM, endpoint A+270 minutes; P=0.0286 (40 uM), P=0.0001 (80 uM); normalized to 6th measurement DMSO control, n=5, FIG. 4. On the procedure: Cells were maintained in growth medium consisting of 10% FBS at 37° C. with 5% CO2 and seeded at 30,000 cells per well in XF24-well cell culture microplates (Seahorse Bioscience, North Billirica, Ma.). Concentrated stocks of poziotinib were prepared in DMSO. Poziotinib was diluted to 10× working concentration in XF assay medium (a non-buffered medium including 2 mM L-glutamine but no sodium bicarbonate (buffering agent), glucose, or sodium pyruvate). Assays were performed in the XF Extracellular Flux Analyzer (Seahorse Bioscience), which measures uptake and excretion of metabolic end products in real time. Oxygen consumption rate (OCR) and extracellular acidification rate (ECAR) were measured using an XF Assay Kit. OCR is reported in pmoles/minute and ECAR in mpH/minute. Before analysis, the cells were switched from culture medium to XF assay medium. After baseline measurements, 75 μl of poziotinib prepared in assay medium was injected into each well to reach final working concentrations. After addition of poziotinib, OCR and ECAR were measured at 18-minute intervals. There were 5 replicates performed for each data point.
OCR was reduced by poziotinib vs. DMSO and was significant at the endpoint of A+270 minutes. […] Results are normalized to the 6th measurement DMSO control and expressed as mean ±S.D. (n=5) (FIG. 4).

In data set [6] the test system is MCF-7 (HER2 negative) cell line. The data set can be described thus: Inhibition of proliferation of MCF-7 cell line in complete media. Format: cell-based. Conditions: Homo sapiens, MCF7, FIG. 1, read-out: IC50 for inhibition of growth. As to the method: as §1, §2

What is called IC50 is the concentration needed to halve the response being measured.

EGFR type I kinase, sequence (P00533 25-1210): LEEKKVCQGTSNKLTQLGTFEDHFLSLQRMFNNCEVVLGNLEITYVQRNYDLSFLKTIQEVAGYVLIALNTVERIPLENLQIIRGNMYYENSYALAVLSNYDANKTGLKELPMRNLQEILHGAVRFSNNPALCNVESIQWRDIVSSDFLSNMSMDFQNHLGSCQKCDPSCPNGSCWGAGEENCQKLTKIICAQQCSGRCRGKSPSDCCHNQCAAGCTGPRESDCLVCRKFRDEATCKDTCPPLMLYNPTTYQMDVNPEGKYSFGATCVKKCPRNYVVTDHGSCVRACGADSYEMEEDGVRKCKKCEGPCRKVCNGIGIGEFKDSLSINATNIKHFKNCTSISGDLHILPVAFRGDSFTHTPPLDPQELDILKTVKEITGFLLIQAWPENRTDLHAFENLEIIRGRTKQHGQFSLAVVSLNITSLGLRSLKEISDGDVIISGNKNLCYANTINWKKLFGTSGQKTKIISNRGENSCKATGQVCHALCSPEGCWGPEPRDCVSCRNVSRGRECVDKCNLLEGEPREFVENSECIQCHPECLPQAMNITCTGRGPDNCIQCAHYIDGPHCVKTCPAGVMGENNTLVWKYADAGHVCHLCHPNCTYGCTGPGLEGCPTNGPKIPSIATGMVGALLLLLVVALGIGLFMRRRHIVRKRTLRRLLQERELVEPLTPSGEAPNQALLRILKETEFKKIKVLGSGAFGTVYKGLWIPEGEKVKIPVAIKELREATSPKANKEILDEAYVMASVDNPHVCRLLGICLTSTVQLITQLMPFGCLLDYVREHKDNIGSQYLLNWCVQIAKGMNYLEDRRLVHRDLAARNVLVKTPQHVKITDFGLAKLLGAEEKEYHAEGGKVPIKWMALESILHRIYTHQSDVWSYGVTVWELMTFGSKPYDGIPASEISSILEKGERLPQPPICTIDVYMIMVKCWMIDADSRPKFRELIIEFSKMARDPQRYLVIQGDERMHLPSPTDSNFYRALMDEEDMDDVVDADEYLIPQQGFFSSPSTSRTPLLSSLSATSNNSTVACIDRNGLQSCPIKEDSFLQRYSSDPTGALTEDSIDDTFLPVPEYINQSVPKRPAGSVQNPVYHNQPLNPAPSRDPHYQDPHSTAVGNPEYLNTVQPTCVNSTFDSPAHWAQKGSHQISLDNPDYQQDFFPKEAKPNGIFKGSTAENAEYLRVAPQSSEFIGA
CYP3A4, sequence (P08684 whole entry): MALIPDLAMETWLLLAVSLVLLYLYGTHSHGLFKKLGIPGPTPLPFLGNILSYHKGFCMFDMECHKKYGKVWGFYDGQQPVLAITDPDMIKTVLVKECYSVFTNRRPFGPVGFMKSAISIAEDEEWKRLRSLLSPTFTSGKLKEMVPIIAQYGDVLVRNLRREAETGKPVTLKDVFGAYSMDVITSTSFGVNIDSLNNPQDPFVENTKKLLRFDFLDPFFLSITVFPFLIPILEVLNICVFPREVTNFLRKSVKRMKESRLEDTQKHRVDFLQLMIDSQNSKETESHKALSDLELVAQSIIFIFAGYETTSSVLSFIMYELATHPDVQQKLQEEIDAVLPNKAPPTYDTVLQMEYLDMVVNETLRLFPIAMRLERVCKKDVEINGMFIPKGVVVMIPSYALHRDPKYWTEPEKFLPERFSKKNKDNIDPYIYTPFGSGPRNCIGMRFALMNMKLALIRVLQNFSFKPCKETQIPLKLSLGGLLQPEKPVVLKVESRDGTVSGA

For the compound `C=CC(=O)N1CCC(Oc2cc3c(Nc4ccc(Cl)c(Cl)c4F)ncnc3cc2OC)CC1` [Poziotinib, 1-(4-((4-((3,4-dichloro-2-fluorophenyl)amino)-7-methoxyquinazolin-6-yl)oxy)piperidin-1-yl)prop-2-en-1-one], the “Inhibition of EGFR type I kinase” value in data set [1] is on record as “inhibit EGFR type I kinase”. The concentration for half-maximal inhibition (IC50) in data set [2] is around 10 µM; in data set [3], around 10 µM; in data set [6] it was around 3000 nM. Besides, the “Inhibition of cell growth” value in data set [4] was “inhibit cell growth”. Besides, the “Oxygen consumption rate (OCR) vs. DMSO” value in data set [5] was “reduced”.

These data come from patent US20180333415A1, “THERAPEUTIC METHODS” (REGENTS OF THE UNIVERSITY OF MINNESOTA, priority 2017, published 2018).
